Reference: US20080235828A1 (University of Manitoba, priority 2004, published 2008)

Legend:
[1] = tested on: FCA/FY interaction; experiment: GST pull-down of FCA/FY interaction in the presence of ABA; format: binding, Arabidopsis
Procedure: All in vitro translation and GST pull-down assays were carried out as described by supplier's protocols (Promega, Madison, Wis.) with modifications^S and as follows. For GST in vitro pull-down assays, 15 μL GST affinity resin was incubated with 250 μL FCA clear lysate, pelleted and the complex blocked and washed with IP buffer as described^S. For the determination of the amount of FCA bound to GST resin, the pellet was resuspended with 200 μL of 15 mM GSH to elute FCA and the supernatant was recovered by centrifugation. FY protein to be tested for interaction with the GST-FCA fusion protein was synthesized from a plasmid template and labeled with [^35S]-methionine using the T7 TNT coupled Transcription/Translation System (Promega). Twenty μL of FY labeled protein and 180 μL of interaction buffer (12.5 mM Tris-HCl, pH 7.3 containing 5 mM KCl, 1 mM MgCl2, and 100 mM NaCl) were used to resuspend the GST:FCA after the final wash. The protein binding/interaction reaction was carried out for 90 minutes at 4° C. with continuous gentle mixing. The newly formed complex was then washed three times with 500 μL of IP wash buffer. After the final wash, the complex was resuspended, first with 10 μL of 1 5 mM GSH to facilitate the dissociation of interacted proteins from GST resin and then 10 μL of 2×SDS-PAGE sample buffer was added to the mixture and boiled for 5 minutes for complete elution of the proteins from the agarose beads. The beads were pelleted by centrifugation and supernatant was loaded on a 12% SDS-PAGE gel. The gel was dried and exposed to Kodak X-ray film for 18 hours at −70° C. and film was developed for the detection of labelled proteins.
FCA was bound with […] for 30 minutes at which time the FCA/FY translated product was added to the incubation mixture. The interaction between FCA/FY was carried out in the presence of either (−)- or (+)-ABA in binding buffer as described above. Released proteins were separated on SDS-PAGE and labelled proteins were detected as described above. FCA-WW-FY was used as a control.

[2] = molecular target: T1, FCA protein (Arabidopsis thaliana, UniProt O04425); experiment: ABA binding assay with purified recombinant FCA; parameters: Kd; other: analog added in higher concentrations than 3H+-ABA (20-5000 nM); other: Scatchard analysis, r^2=0.88; other: in presence of 5 μM unlabelled (+)-ABA; pH range of maximum; fused on or other part: GST fused on for purification
T1 sequence (O04425 1-747 isoform O04425-1): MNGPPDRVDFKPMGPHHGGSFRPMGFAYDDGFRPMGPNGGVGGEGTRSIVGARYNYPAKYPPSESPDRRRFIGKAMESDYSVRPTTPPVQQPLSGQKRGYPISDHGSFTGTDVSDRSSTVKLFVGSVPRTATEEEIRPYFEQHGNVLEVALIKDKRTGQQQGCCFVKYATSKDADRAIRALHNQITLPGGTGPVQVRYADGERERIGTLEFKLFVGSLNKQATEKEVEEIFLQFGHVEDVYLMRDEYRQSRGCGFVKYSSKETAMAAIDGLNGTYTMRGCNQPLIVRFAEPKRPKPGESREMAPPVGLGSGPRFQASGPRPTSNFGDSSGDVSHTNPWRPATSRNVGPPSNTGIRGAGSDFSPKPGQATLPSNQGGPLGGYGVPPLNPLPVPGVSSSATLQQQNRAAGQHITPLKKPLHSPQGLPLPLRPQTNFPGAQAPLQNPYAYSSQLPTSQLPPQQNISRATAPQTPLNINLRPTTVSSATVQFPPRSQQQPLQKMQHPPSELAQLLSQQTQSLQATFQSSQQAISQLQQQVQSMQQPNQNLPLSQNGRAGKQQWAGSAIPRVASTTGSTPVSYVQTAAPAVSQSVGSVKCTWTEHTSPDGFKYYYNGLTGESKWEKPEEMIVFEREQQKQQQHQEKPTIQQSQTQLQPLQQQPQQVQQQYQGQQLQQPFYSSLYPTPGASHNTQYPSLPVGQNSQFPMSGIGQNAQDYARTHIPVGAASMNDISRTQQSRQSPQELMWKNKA
Procedure: […] The mixture was then rapidly filtered through a nitrocellulose membrane, washed with 0.5× binding buffer, air dried and counted in a scintillation counter (Wallac 1414 WinSpectral v1.40). Heat denatured FCA protein was used to used determine the protein nature of the FCA and BSA was used as a control. All binding studies were carried out using three different GST affinity chromatography protein purifications with triplicate assays for each purification. […] Specific binding was calculated by taking the difference for assays with only ^3H^+-ABA (total binding) and assays that also contained 5 μM (±)-ABA added at the same time as ^3H^+-ABA (non-specific binding). Binding was represented as the number of moles of ^3H^+-ABA per mole of FCA protein.

[3] = molecular target: ABAP1 (Hordeum vulgare, UniProt Q9LLX3); experiment: ABA binding assay with purified recombinant ABAP1; parameters: species or system barley
Procedure: Other additions or changes to the incubation system are discussed in the figure legends. All binding assays were carried out at a final volume of 150 μL at 4° C. for 1 hour. The mixture was then rapidly filtered through a nitrocellulose membrane, washed with 5 mL, of cold 0.5× binding buffer by rapid filtration, dried in air and counted in a scintillation counter (Wallac 1414 WinSpectral v1.40). […] The DCC binding mixture was maintained for 15 minutes on ice before centrifugation to precipitate DCC. The resulted supernatant was then counted in a scintillation counter to determine the binding activity. […] Heat denatured ABAP1 protein was used to determine the protein nature of the ABAP1 and BSA was used as a control. All binding studies were carried out using three different protein purifications with triplicate assays for each purification. […] Binding was represented as the number of moles of ^3H^+-ABA per mole of ABAP1 protein.

Chain of ABAP1 (Q9LLX3 entry or part of it): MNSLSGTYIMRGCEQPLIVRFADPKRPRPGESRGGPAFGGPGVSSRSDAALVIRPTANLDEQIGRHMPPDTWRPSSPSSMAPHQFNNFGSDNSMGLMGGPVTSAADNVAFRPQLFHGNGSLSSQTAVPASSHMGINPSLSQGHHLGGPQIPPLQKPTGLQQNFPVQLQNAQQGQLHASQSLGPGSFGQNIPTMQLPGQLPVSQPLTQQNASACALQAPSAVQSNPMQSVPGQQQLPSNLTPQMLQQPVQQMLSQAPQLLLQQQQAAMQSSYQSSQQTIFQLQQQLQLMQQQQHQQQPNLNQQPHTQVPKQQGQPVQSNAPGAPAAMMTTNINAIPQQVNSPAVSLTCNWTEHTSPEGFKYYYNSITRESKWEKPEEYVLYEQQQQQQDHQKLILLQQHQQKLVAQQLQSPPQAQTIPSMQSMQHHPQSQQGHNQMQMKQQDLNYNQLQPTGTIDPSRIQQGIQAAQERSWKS

With abscisic acid [ABA] the “inhibition of FCA/FY interaction” value ([1]; FCA pre-bound with ABA for 30 min) was “significantly inhibited”, the FCA/FY interaction remaining ([1]; at 1 μM ABA) was “virtually no significant interaction” and the “binding corresponding to 100% binding activity” value ([2]; 50 nM 3H-(+)-ABA, FIG. 16) was “approximately 0.52 mol ABA mol^−1 protein”. The maximum binding ([2]; Scatchard analysis, r^2=0.88) was 0.72 mol mol^−1 protein, the “ratio of ABA bound to FCA” value ([2]; Scatchard plot) was “approximately 0.72 mol ABA mol^−1 protein” and the non-specific binding ([2]; in presence of 5 μM unlabelled (+)-ABA) was “less than 11 % of the total binding”. The “pH of maximum binding activity” value ([3]; 3H+-ABA binding at varying pH) was 7.3, the maximum specific binding ([3]; Scatchard plot analysis, r^2=0.94) was 0.8 mol ABA mold protein and the “ratio of ABA bound to ABAP1” value ([3]; Scatchard plot, r^2=0.94) was “approximately 0.8 mol ABA mol^−1 protein”. For the same substance, the “time maximum binding activity remained stable” value ([3]; additional time after reaching maximum binding) was ≥ 3 h, the “maximum binding activity (total binding)” value ([3]; association kinetics, total binding) was “≈ 0.7 mol ABA mol^−1 protein” and the non-specific binding ([3]; in presence of 5 μM unlabelled ABA) was “less than 10 % of the total binding”.
